From patent US8486464B2, “Herbal composition for angina pectoris, method to prepare same and uses thereof” (Tasly Pharmaceutical Group Co. Ltd., priority 2000, dated 2013) come the findings set out here.

Marks after values point to notes of the source that are not given here.

Holding throughout (assay type): in vivo
Assay [1] has as its system cAMP. Briefly: cAMP content in rabbit blood platelets. The conditions noted are these: per mg protein; Aminophylline 0.6 mg/kg, DSP 1.0 mg/kg. On the procedure:
• 5. Effects on cAMP content in rabbit blood platelets. cAMP content is tested by radioimmunoassay. Protein content is measured by the Hartree Method.

For assay [2], the system named is cAMP. Description: cAMP content in rat blood plasma. The note with it: Aminophylline 30 mg/kg, DSP 50 mg/kg. As to the method:
• 6. Effects on cAMP content in rat blood plasma. Blood cAMP content was tested by radioimmunoassay.

The test system of the next assay is serum lipoprotein. Description: High-fats rabbits: lipoprotein in blood serum. The conditions noted are these: DSP 4 g/kg/day, Simvastatin 1 mg/kg/day. As to the method: (1) Normal control group (8 rabbits) normal feeding; (2) High-fats group: High-fats feeding. All were fed for 4 weeks. Weight and lipoprotein in the blood were measured. […] High-fats control group, 2. High-dosage of DSP group (4 g dosage/kg/day), 3. […] All are given distilled water except those with special prescriptions and ends after 12 weeks testing.

A further assay deals with aorta AS. Briefly: High-fats rabbits: aortic lesion and lipoprotein content in aorta. The note with it: 8 weeks, DSP 4 g/kg/Day, Simvastatin 1 mg/kg/Day. As to the method:
(§1) 1.1 Experimental Groups. (1) Normal control group (8 rabbits) normal feeding; (2) High-fats group: High-fats feeding. All were fed for 4 weeks. Weight and lipoprotein in the blood were measured. The high-fats group was divided into 4 sub-groups (12 rabbits in each sub-group). 1. High-fats control group, 2. High-dosage of DSP group (4 g dosage/kg/day), 3. Low-dosage DSP group (2 g dosage/kg/day), and 4. […] All are given distilled water except those with special prescriptions and ends after 12 weeks testing.
1.2 Experimental Methods and Standards. (1) Examination of Aortic Lesion. Drugs were given to the animals for 8 weeks, and then the animals were killed. The aortas were removed and the unnecessary membranes and fats discarded. The aortas were cut open along the mid line. One-fifth of the aorta was removed for lipid examination. […] The percentage of the lesion part was calculated, and a grading was given. […] The average thickness of the interior membrane spot plates was measured by microscopic parameter. […] The number of blood vessels with spot plates in the coronary artery and the lesion percentage (lesion percentage=the number of blood vessels with lesion/the total number of blood vessels in each transect X100%) were observed, calculated and graded according to the blocking of the blood vessels with spot plates. The average points were calculated by accumulation.

The subject of a further assay is liver TG. Description: High-fats rabbits: liver TG and liver coefficient. The note with it: DSP 4 g/kg, Simvastatin 1 mg/kg. On the procedure:
as §1

The subject of the next assay is SOD, MDA. Briefly: High-fats rabbits: SOD activity and MDA content in blood serum and liver. The note with it: 8 weeks, DSP 4 g raw medicine/kg/d, Simvastatin 1 mg/kg/d. As to the method:
Method. The experimental groups were divided into: (1) Normal control group. Normal feeding; (2) High-fats feeding group: high-fats feeding.
All were fed for 4 weeks. weight and lipoprotein content in the blood were measured. […] Medicine was given to the rabbits through the stomach, according to prescription. The same volume of distilled water was given to the normal control group and high-fats feeding group. Testing ended after 12 weeks.

As for `Cn1c(=O)c2[nH]cnc2n(C)c1=O` [Aminophylline], the “cAMP content in rabbit platelets” value in the assay with cAMP [1] is 15.4 ± 3.9 pmol/mg. Moreover, the “blood plasma cAMP content” value turned out to be 20.7 ± 3.2 Pmol/ml plasma with cAMP [2] (30 min after treatment) and 21.1 ± 3.8 Pmol/ml plasma with cAMP [2] (60 min after treatment).

Consider `CCC(C)(C)C(=O)O[C@H]1C[C@@H](C)C=C2C=C[C@H](C)[C@H](CC[C@@H]3C[C@@H](O)CC(=O)O3)[C@H]21` [Simvastatin], for which, in the assay on serum lipoprotein (2 weeks after dosage), the “LDC-C, blood serum” value is 19.54 ± 5.71 mmol/L; the “TC, blood serum” value worked out at 27.06 ± 4.46 mmol/L; the “TC/HDL-C, blood serum” value came to 32.29 ± 7.39; the “TG, blood serum” value is recorded as 1.85 ± 0.55 mmol/L. In the assay with serum lipoprotein (2 weeks after dosage), the “VLDC-C, blood serum” value is 6.66 ± 1.65 mmol/L. In addition, in the assay with serum lipoprotein (4 weeks after dosage), the “LDC-C, blood serum” value is reported as 18.22 ± 3.37 mmol/L; the “TC, blood serum” value was 26.1 ± 3.03 mmol/L; the “TC/HDL-C, blood serum” value is given as 19.6 ± 4.38; the “TG, blood serum” value was 1.80 ± 0.31 mmol/L. The “VLDC-C, blood serum” value in the assay on serum lipoprotein (4 weeks after dosage) is given as 6.54 ± 0.74 mmol/L. Also, in the assay on serum lipoprotein (8 weeks after dosage), the “LDC-C, blood serum” value amounted to 17.78 ± 5.69 mmol/L; the “TC, blood serum” value is 26.3 ± 4.40 mmol/L; the “TC/HDL-C, blood serum” value was found to be 22.3 ± 6.54; the “TG, blood serum” value amounted to 2.70 ± 0.77 mmol/L. In addition, the “VLDC-C, blood serum” value in the assay with serum lipoprotein (8 weeks after dosage) worked out at 7.30 ± 2.05 mmol/L. Besides, in the assay on serum lipoprotein (A/fter dosage), the “LDC-C, blood serum” value was determined as 19.69 ± 8.33 mmol/L; the “TC, blood serum” value is given as 26.92 ± 7.72 mmol/L; the “TC/HDL-C, blood serum” value is recorded as 31.68 ± 10.14; the “TG, blood serum” value stood at 2.04 ± 1.00 mmol/L. The “VLDC-C, blood serum” value in the assay with serum lipoprotein (A/fter dosage) is reported as 6.35 ± 1.42 mmol/L. Also, in the assay with serum lipoprotein (B/f testing), the “LDC-C, blood serum” value came to 0.87 ± 0.21 mmol/L; the “TC, blood serum” value is 2.27 ± 0.18 mmol/L; the “TC/HDL-C, blood serum” value was 2.72 ± 0.85; the “TG, blood serum” value was found to be 0.72 ± 0.15 mmol/L. In addition, the “VLDC-C, blood serum” value with serum lipoprotein (B/f testing) is reported as 0.51 ± 0.27 mmol/L. Also, the “TC content in aorta” value in the assay on aorta AS amounted to 4.93 ± 2.62. The “Liver Coefficient” value with liver TG was found to be 5.16 ± 0.60 g/100 g weight. In the assay on SOD, MDA, the “MDA, blood serum” value is 5.63 ± 1.30 nmol/mL; the “SOD, Liver” value is given as 11.62 ± 0.38*** 10^3 u/g tissue weight; the “SOD, blood serum” value came out at 816.7 ± 77.2 u/ml.
